The source of these data is patent publication US20190167675A1, “METHODS AND COMPOSITIONS FOR APPETITE CONTROL AND WEIGHT MANAGEMENT” (SHANGHAI YAO YUAN BIOTECHNOLOGY CO., LTD., priority 2016, published 2019).

For one series, the system named is ASIC. The following applies: cited from earlier work.
Series [1] concerns ASICs. The following applies: Rat DRG neurons, in vitro; cited from earlier work.
A short description of series [2]: Body composition by NMR in LepR^PB obese mice. Format: in vivo, LepR^PB female mice. The note with it: before and after 5-week administration.
In series [3] the test system is ASICs. The note with it: cited from earlier work.
The subject of a further series is DEG/ENaC ion channels. Nature of the series: Short-term food intake in normal mice. The class given is in vivo, C57BL6 mice. The following applies: 15 minutes before feeding. Here is the method:
13 weeks old C57BL6 Female and male mice were singly housed for 2 weeks before the experiment. Mice were starved Sam-6 μm. […] The administrated volume was 10 ml/kg body weight. 15 minutes later, normal chow solid food was provided to the mice and the food consumption at designated time points were measured. P-values were calculated using t-test (unpaired, 2 tails) for data points. *=p<0.05, **=p<0.01, ***=p<0.001
15 weeks old C57BL6 female mice were singly housed for 2 weeks before the experiment. Mice were starved Sam-6 μm. Then Benzamil (Benzamil hydrochloride hydrate) was administrated by intraperitoneal injection, 0.01-10 μmole/kg body weight (3.5621 μg 3.5621 mg/kg b.w.), or saline. The administrated volume was 10 ml/kg body weight. 15 minutes later, normal chow solid food was provided to the mice and the food consumption at designated time points were measured.

Series [4] in a line: Weight change in LepR^PB obese mice. The class given is in vivo, LepR^PB female mice. The note with it: oral gavage 6 times a week for 5 weeks, 4.1 mg/kg/day Day 1-14, 12.3 mg/kg/day Day 15-35; by day 35. Here is the method:
8 weeks old LepR^PB female mice were used in the experiment. LepR^PB mouse is a model of obesity, which carries a mutation in the gene for the leptin receptor. 20 mice were randomly divided into two groups. […] Amiloride was dissolved in DMSO and diluted in sterile water. […] The injection volume was 10 ml/kg. The mice in control group received 82 μl DMSO/kg/day in sterile water. Body weight was measured. The weight changes compared to the body weight on Day 14 were analyzed.

The subject of series [5] is ASICs. The note with it: in vitro; cited from earlier work.
For series [6] the following is noted: guinea pig TPD model; cited from earlier work.
Another series addresses T1, ENaC (Homo sapiens, UniProt P37088+P51168+P51170).
T1 sequence (P37088 1-669): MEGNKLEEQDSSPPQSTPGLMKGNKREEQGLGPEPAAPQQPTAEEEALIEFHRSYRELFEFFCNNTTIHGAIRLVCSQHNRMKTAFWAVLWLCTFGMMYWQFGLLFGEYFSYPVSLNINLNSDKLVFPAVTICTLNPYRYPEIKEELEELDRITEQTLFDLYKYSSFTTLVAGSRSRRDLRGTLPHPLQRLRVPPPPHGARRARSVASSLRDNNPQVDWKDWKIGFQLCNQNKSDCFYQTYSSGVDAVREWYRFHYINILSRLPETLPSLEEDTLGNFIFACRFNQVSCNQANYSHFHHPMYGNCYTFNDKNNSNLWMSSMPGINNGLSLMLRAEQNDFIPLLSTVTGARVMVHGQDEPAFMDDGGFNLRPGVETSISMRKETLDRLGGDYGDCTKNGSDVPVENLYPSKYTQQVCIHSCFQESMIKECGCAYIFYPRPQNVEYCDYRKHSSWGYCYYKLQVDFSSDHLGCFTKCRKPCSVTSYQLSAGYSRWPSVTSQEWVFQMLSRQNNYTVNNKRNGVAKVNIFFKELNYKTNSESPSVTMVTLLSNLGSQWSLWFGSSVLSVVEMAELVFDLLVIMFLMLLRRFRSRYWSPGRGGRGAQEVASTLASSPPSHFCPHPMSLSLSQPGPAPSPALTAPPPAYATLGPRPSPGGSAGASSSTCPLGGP
T1 sequence (P51168 1-640): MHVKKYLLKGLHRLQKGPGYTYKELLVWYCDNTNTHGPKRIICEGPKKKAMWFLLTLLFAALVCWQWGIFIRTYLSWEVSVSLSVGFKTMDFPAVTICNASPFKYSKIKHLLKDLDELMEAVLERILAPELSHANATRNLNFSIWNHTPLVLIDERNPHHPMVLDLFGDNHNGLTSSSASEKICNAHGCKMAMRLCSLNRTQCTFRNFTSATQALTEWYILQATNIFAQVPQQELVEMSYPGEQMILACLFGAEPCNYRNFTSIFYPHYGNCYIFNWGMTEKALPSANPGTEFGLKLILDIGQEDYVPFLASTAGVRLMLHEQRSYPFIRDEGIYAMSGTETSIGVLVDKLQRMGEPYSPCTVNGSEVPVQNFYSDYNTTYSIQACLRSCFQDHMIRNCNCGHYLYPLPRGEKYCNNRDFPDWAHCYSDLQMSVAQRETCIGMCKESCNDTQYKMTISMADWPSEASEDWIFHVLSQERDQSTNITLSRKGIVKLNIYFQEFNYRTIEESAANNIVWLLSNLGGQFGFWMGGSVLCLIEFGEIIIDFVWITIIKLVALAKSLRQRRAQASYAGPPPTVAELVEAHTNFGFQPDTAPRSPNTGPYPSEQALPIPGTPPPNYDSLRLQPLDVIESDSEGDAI
T1 sequence (P51170 1-649): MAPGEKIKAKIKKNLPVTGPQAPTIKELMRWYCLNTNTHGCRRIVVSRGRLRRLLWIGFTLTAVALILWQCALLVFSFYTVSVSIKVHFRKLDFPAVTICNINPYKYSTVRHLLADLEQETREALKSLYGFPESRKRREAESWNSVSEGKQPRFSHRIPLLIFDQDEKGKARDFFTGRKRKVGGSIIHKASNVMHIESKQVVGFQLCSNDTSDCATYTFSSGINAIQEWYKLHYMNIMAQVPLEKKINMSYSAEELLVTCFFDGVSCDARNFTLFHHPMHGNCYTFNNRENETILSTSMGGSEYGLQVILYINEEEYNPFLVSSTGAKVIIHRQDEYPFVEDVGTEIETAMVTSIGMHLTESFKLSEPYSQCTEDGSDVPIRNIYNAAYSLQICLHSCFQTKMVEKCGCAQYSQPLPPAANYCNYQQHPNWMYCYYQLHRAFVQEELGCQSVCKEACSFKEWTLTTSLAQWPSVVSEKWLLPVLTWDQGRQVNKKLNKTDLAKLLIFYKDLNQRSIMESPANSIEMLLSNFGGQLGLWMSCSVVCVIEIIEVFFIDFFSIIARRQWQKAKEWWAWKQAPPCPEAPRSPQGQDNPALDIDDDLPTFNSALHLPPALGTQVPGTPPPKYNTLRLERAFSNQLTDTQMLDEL
The following applies: in vitro and in vivo; cited from earlier work.

The conditions of series [7]: mice; i.t., i.c.v., intraplantar or intravenous; cited from earlier work.
The next series deals with T2, homomeric ASIC1a (Homo sapiens, UniProt P78348).
T2 sequence (P78348 1-528): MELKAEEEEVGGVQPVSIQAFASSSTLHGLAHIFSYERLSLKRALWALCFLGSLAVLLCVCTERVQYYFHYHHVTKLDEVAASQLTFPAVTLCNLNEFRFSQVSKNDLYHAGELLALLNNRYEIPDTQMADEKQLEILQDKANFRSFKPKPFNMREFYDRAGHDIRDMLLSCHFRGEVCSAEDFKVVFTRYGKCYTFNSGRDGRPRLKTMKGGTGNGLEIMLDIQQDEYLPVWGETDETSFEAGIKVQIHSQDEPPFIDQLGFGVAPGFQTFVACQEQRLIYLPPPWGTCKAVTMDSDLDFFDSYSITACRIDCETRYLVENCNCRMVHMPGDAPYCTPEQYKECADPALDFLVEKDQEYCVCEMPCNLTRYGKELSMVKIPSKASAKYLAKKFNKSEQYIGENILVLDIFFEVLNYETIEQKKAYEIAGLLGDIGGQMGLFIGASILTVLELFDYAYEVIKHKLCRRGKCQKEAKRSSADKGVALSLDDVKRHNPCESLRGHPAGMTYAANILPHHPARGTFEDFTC
The following applies: cited from earlier work.

The target of a further series is T3, heteromeric ASIC1a/2b (Homo sapiens, UniProt P78348+Q16515).
T3 sequence (P78348 1-528): T2 sequence (P78348 1-528)
T3 sequence (Q16515 1-563 isoform Q16515-2): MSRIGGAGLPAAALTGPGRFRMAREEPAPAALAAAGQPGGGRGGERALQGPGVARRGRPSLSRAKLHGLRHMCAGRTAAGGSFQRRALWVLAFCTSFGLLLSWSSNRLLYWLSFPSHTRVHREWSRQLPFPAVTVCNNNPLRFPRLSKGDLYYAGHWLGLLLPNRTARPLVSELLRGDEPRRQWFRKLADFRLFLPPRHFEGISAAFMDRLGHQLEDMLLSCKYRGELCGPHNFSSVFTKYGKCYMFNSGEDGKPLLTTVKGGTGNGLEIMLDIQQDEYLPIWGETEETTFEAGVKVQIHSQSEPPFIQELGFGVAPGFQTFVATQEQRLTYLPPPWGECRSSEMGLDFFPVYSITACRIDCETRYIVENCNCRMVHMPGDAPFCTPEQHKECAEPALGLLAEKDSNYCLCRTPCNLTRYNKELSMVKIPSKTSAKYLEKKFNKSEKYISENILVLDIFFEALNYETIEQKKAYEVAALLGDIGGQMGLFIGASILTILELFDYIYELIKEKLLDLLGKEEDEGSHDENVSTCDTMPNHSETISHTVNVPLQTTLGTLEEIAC
The following applies: cited from earlier work.

“Also recorded” adds a separate entry of the source.

`CC(C)C1c2cc(/C=C/c3ccc4cc(C(=N)N)ccc4c3)ccc2CCN1C` (stereo not drawn) [10a]: in the series with ASIC, the “potency relative to A-317567” value was “about 3 fold”.
Regarding `CC(C)C1c2cc(C#Cc3ccc4cc(C(=N)N)ccc4c3)ccc2CCN1C` (stereo not drawn) [10b], in the series with ASIC, the “potency relative to A-317567” value is listed as “about 3 fold”.
For `CC(C)C1c2cc(C3CC3c3ccc4cc(C(=N)N)ccc4c3)ccc2CCN1C` (stereo not drawn) [A-317567], the “potency relative to Amiloride on ASICs currents” value in the series on ASICs [1] is reported as 1.8-15 fold.
For orientation: IC50 means the point on the concentration scale where inhibition reaches its midpoint. Consider `NC(N)=NC(=O)c1nc(Cl)c(N)nc1N` [Amiloride, 3,5-diamino-6-chloro-N-(diaminomethylidene)pyrazine-2-carboxamide], for which, in series [2], the “reduction in body fat percentage vs DMSO” value is on record as “significantly more reduction” and the “reduction in body fluid percentage vs DMSO” value is recorded as “not significantly different; also recorded: no significant difference”. In addition, the IC50 in the series on ASICs [3] is 10 to 100 µM. The short-term food intake entry with DEG/ENaC ion channels (intraperitoneal, 1, 10 or 100 μmole/kg, male C57BL6 mice) is recorded as “suppressed short-term food intake”. Further, the short-term food intake entry in the series on DEG/ENaC ion channels (oral gavage, 1, 10 or 100 μmole/kg, female C57BL6 mice) was “suppressed short-term food intake”. Moreover, the “body weight change compared to Day 14, vs DMSO” value in series [4] is “significant reductions in body weight; also recorded: clear reduction in weight”.
As to `N=C(N)c1ccc(-c2cc3ccc(C(=N)N)cc3[nH]2)cc1` [DAPI, 4′,6-diamidino-2-phenylindole], the ASICs blockage activity entry in the series on ASICs [5] was “potent ASICs blockage activity”.
Regarding `N=C(NC(=O)c1nc(Cl)c(N)nc1N)NC1CCN(C(=O)c2ccc(C(=O)N3CCC(NC(=N)NC(=O)c4nc(Cl)c(N)nc4N)CC3)cc2)CC1` [NVP-QBE170], in series [6], the “safety window over existing ENaC blockers, in terms of hyperkalaemia” value is on record as “significantly enhanced safety window”. Moreover, the “blockage of ENaC” value on ENaC is “potent and selective blockage of ENaC”.
For `N=C(N)c1ccc(/N=N/Nc2ccc(C(=N)N)cc2)cc1` [diminazene], in the series with ASICs [5], the ASICs blockage activity result was “potent ASICs blockage activity”.
As for `N=C(N)c1ccc(OCCCCCOc2ccc(C(=N)N)cc2)cc1` [pentamidine], the ASICs blockage activity result in the series on ASICs [5] is “potent ASICs blockage activity”.
With APETx2, in series [7], the “excitotoxicity, spasms, convulsions, motor paralysis, ataxia upon in vivo injections” value is on record as “never produce excitotoxicity, spasms, convulsions, motor paralysis, nor ataxia”.
Take PcTx1: in series [7], the “excitotoxicity, spasms, convulsions, motor paralysis, ataxia upon in vivo injections” value is “never produce excitotoxicity, spasms, convulsions, motor paralysis, nor ataxia”. Besides, the “inhibition of homomeric ASIC1a” value on homomeric ASIC1a is listed as “nanomolar potency”. Moreover, on heteromeric ASIC1a/2b, the “inhibition of heteromeric ASIC1a/2b” value is “nanomolar potency”.
